± gives the expanded uncertainty stated by the source.
Columns and labels:
[1] = Crystal; DTA
[2] = Molar enthalpy of transition or fusion; details: Crystal; DSC

**Q.** Which Normal melting temperature [1] does the source give for `CCOc1cc(C=O)ccc1O` [3-ethoxy-4-hydroxybenzaldehyde] here?
**A.** 79.83 ± 1.1 °C

**Q.** And the “Molar enthalpy of transition or fusion” value [2]?
**A.** 5.68 ± 0.263 kcal/mol
